Results taken from patent US20040138301A1, “Chemical uncouplers for the treatment of obesity” (priority 2002, published 2004).
Read-outs that look alike come from different tables or passages of the source.

Columns and labels:
[1] = system: HEP-G2 cells; assay: cells; details: for EC50 / Emax / EC (Emax): Homo sapiens; for EC50: HepG2, 3 h; for HEP-G2 Tox: human, 3 h
Summary of the method: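 HEP-G2 cells were treated with compound for 3 h at 37 °C in MEM/0.5% BSA containing 10 μCi/ml D-(3-^3H(N))-glucose, then lysed with TCA; ^3H-water released via the respiratory chain was recovered by evaporation at 50 °C and counted. Values are corrected for non-specific and basal counts, expressed as % of maximal FCCP or DNP stimulation, and EC50 is from a variable-slope sigmoidal fit.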

[2] = system: isolated mitochondria; assay: Assay (II): effect of chemical uncouplers on mitochondrial respiration using isolated mitochondria (oxygen consumption); assay type: biochemical
Description: Assay (II)—The Effect of Chemical Uncouplers on Mitochondrial Respiration Using Isolated Mitochondria.
This assay is used to investigate if the increase in glucose utilisation caused by the test compounds observed in the glucose utilisation assay is due to an increase in the respiration of the mitochondria. This is done by measuring oxygen consumption in isolated mitochondria.
A Clark oxygen electrode is used to determine the oxygen consumption. The isolated mitochondria are added to medium containing oxygen and nutrients (e.g. Succinate) and the rate of oxygen consumptions is measured, when stabilized a small amount of ADP is added to increase the respiration and an increase in the rate of oxygen consumption is measured. When the rate of oxygen consumption again has stabilized the test compound is added and a further increase in oxygen consumption is seen. This experiment is done with and without the addition of oligomycin which is an inhibitor of the ATP-synthase. Finally, the test compound is examined without adding ADP. If the test compound stimulates the rate of oxygen consumption in all setups, it is regarded as a chemical uncoupler.

[3] = system: FSK-4 cells; assay: Assay (IV): Glucose utilisation in FSK-4 cells; assay type: cell-based; details: for EC50: read-out: FSK4 EC50; for Emax: read-out: FSK4 Emax (% of FCCP)
[4] = humans; cited from earlier work
[5] = HepG2, read-out: HEP-G2 Emax (% of FCCP)
[6] = HepG2, read-out: HEP-G2 Emax (μM)
[7] = read-out: HEP-G2 EC50, HEP-G2 cells, glucose utilisation, 3 hours incubation
[8] = HepG2, read-out: HEP-G2 Emax (% of FCCP), HEP-G2 cells, maximal stimulation relative to FCCP
[9] = HepG2, read-out: HEP-G2 Emax (μM), HEP-G2 cells, concentration at which Emax is achieved (CEmax)
[10] = FSK-4 cells, glucose utilisation, 24 hours incubation
[11] = FSK-4 cells, maximal efficacy relative to FCCP

Row | EC50 [1, 7] [µM] | EC50 [3, 10] [µM] | Structure (SMILES) | EC50 ([1]; read-out: HEP-G2 EC50) [µM] | Emax [1, 5] [%] | EC (Emax) [1, 6] [µM] | Mito State-4 [2] | EC50 ([3]; 24 h) [µM] | Emax [3] [%] | lowest dose which could be lethal relative to average dose giving a desired 50% increase in basal metabolic rate [4] | Emax [1, 8] [%] | EC (Emax) [1, 9] [µM] | Emax [3, 11] [%] | HEP-G2 Tox [1]
1 | – | – | CC(CCC(=O)O)(c1ccc(O)c([N+](=O)[O-])c1)c1ccc(O)c([N+](=O)[O-])c1 [Example 1, 4,4-Bis-(4-Hydroxy-3-Nitrophenyl)-Valeric Acid] | 40 | 45 | 100 | Ok | – | – | – | – | – | – | –
2 | – | – | CC(C)(C)c1cc(C=C(C#N)C#N)cc(C(C)(C)C)c1O [Example 25, 2,6-Di-t-Butyl-4-(2′,2′-Dicyanovinyl)Phenol, reference compound] | 0.48 | 100 | 10 | Ok | 0.01 | 110 | – | – | – | – | –
3 | – | – | O=[N+]([O-])c1ccc(O)c([N+](=O)[O-])c1 [Example 26, 2,4-Dinitrophenol, reference compound] | 225 | 100 | 500 | Ok | 90 | 95 | twice | – | – | – | –
4 | 0.58 | – | CC(C)(C)c1cc(C(=O)Nc2ccc([N+](=O)[O-])cc2Cl)c(O)c(C(C)(C)C)c1 [Example 40, 3,5-Di-Tert-Butyl-N-(2-Chloro-4-Nitro-Phenyl)-2-Hydroxy-Benzamide] | – | – | – | Ok | – | – | – | 105 | 3 | – | –
5 | 14 | 19 | Cc1c(Br)cc(C(C)(C)C)c(O)c1C(=O)Nc1ccc(C(C)C)cc1C(F)(F)F [Example 63, 3-Bromo-5-Tert-Butyl-6-Hydroxy-N-(4-Isopropyl-2-Trifluoromethyl-Phenyl)-2-Methyl-Benzamide] | – | – | – | – | – | – | – | 90 | 100 | 55 | –
6 | 100 | 9 | CCOC(=O)/C(=C/c1cc(C(C)(C)C)c(O)c(C(C)(C)C)c1)C(C)=O [Example 69, 2-Acetyl-3-(3,5-Di-Tert-Butyl-4-Hydroxy-Phenyl)-Acrylic Acid Ethyl Ester] | – | – | – | – | – | – | – | 58 | 300 | 40 | Tox 1 mM
7 | – | – | CC(C)(C)c1cc([N+](=O)[O-])cc(C(C)(C)C)c1O [Example 72, 2,6-Di-Tert-Butyl-4-Nitro-Phenol] | 13 | 100 | 100 | Ok | – | – | – | – | – | – | –
8 | 16 | 15 | CC(C)(C)c1cc(/C=C(\C#N)c2ccccn2)cc(C(C)(C)C)c1O [Example 74, 3-(3,5-Di-Tert-Butyl-4-Hydroxy-Phenyl)-2-Pyridin-2-Yl-Acrylonitrile] | – | – | – | – | – | – | – | 80 | 100 | 120 | –
9 | 8 | 18 | CC(C)(C)c1cc(/C=C(\C#N)c2ccc(OC(F)(F)F)cc2)cc(C(C)(C)C)c1O [Example 80, 3-(3,5-Di-Tert-Butyl-4-Hydroxy-Phenyl)-2-(4-Trifluoromethoxy-Phenyl)-Acrylonitrile] | – | – | – | – | – | – | – | 80 | 100 | 100 | Tox 0.3 mM
10 | 10 | 11 | CCOC(=O)/C(C#N)=C(/C)c1cc(C(C)(C)C)c(O)c(C(C)(C)C)c1 [Example 82, 2-Cyano-3-(3,5-Di-Tert-Butyl-4-Hydroxy-Phenyl)-But-2-Enoic Acid Ethyl Ester] | – | – | – | – | – | – | – | 100 | 30 | 90 | –

Row | Structure (SMILES) | EC50 [1, 7] [µM] | EC50 [3, 10] [µM] | EC50 ([1]; read-out: HEP-G2 EC50) [µM] | Emax [1, 5] [%] | EC (Emax) [1, 6] [µM] | Mito State-4 [2] | EC50 ([3]; 24 h) [µM] | Emax [3] [%] | lowest dose which could be lethal relative to average dose giving a desired 50% increase in basal metabolic rate [4] | Emax [1, 8] [%] | EC (Emax) [1, 9] [µM] | Emax [3, 11] [%] | HEP-G2 Tox [1]
11 | CC(C)(C)c1cc([N+](=O)[O-])cc([N+](=O)[O-])c1O [Example 73, 2-Tert-Butyl-4,6-Dinitro-Phenol] | – | 7 | 7.3 | 70 | 300 | – | – | – | – | – | – | 100 | –
12 | CCOP(=O)(OCC)/C(C#N)=C\c1cc(C(C)(C)C)c(O)c(C(C)(C)C)c1 [Example 76, 3-(3,5-Di-Tertbutyl-4-Hydroxybenzylidene)-2-(Diethylphosphonate)-Propenenitrile] | – | 3.2 | 11 | 90 | 30 | – | – | – | – | – | – | 150 | –
13 | CC(C)(C)c1cc(/C=C(\C#N)c2ccc(C(F)(F)F)cc2)cc(C(C)(C)C)c1O [Example 81, 3-(3,5-Di-Tert-Butyl-4-Hydroxy-Phenyl)-2-(4-Trifluoromethyl-Phenyl)-Acrylonitrile] | – | 7 | 7 | 130 | 100 | – | – | – | – | – | – | 140 | –
